Results taken from ChEMBL document CHEMBL1201862, “PubChem BioAssay data set” (2004).
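48-hour exposure; five concentrations; linearly interpolated endpoints. GI50 marks 50% less growth.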 Active and inactive are the calls of the source. Rule as the data show it: active = GI50 up to about 1.1 µM and inactive = higher.

Legend:
Experiment in all cases: inhibition of tumour cell growth, NCI panel, 48 h
DMS-114 = test system: DMS-114
SK-MEL-5 = test system: SK-MEL-5
COLO 205 = test system: COLO 205
MOLT-4 = test system: MOLT-4
NCI-H226 = test system: NCI-H226
M14 = test system: M14
SK-OV-3 = test system: SK-OV-3
LXFL 529 = test system: LXFL 529
OVCAR-3 = test system: OVCAR-3
UO-31 = test system: UO-31
ACHN = test system: ACHN
SNB-19 = test system: SNB-19
SNB-78 = test system: SNB-78
NCI-H460 = test system: NCI-H460
HOP-92 = test system: HOP-92
OVCAR-4 = test system: OVCAR-4
KM-20L2 = test system: KM-20L2
HOP-18 = test system: HOP-18
OVCAR-5 = test system: OVCAR-5
SF-539 = test system: SF-539
SR = test system: SR
M19-MEL = test system: M19-MEL
A498 = test system: A498
SF-295 = test system: SF-295
NCI-H522 = test system: NCI-H522
HT-29 = test system: HT-29
DMS-273 = test system: DMS-273
K562 = test system: K562
SK-MEL-2 = test system: SK-MEL-2
LOX IMVI = test system: LOX IMVI
OVCAR-8 = test system: OVCAR-8
Malme-3M = test system: Malme-3M
UACC-257 = test system: UACC-257
HL-60 = test system: HL-60
U-251 = test system: U-251
HCT-15 = test system: HCT-15
NCI-H23 = test system: NCI-H23
SN12C = test system: SN12C
HCC 2998 = test system: HCC 2998
UACC-62 = test system: UACC-62
A549 = test system: A549
RPMI-8226 = test system: RPMI-8226
SW-620 = test system: SW-620
SK-MEL-28 = test system: SK-MEL-28
CAKI-1 = test system: CAKI-1
RXF 393 = test system: RXF 393
KM12 = test system: KM12
EKVX = test system: EKVX
DLD-1 = test system: DLD-1
HOP-62 = test system: HOP-62
TK-10 = test system: TK-10
SF-268 = test system: SF-268
IGROV-1 = test system: IGROV-1
RXF 631 = test system: RXF 631
HCT-116 = test system: HCT-116
CCRF-CEM = test system: CCRF-CEM
SNB-75 = test system: SNB-75
786-0 = test system: 786-0
XF498 = test system: XF498

## NS(=O)(=O)c1ccc(NC(=O)COC(=O)c2cccc3c(=O)c4ccccc4[nH]c23)cc1
DMS-114
  GI50: 18.9 µM (inactive)
SK-MEL-5
  GI50: > 83.4 µM (inactive)
COLO 205
  GI50: > 88.3 µM (inactive)
MOLT-4
  GI50: 14.3 µM (inactive)
NCI-H226
  GI50: 19.6 µM (inactive)
M14
  GI50: 61.4 µM (inactive)
SK-OV-3
  GI50: 18.9 µM (inactive)
LXFL 529
  GI50: 7.93 µM (inactive)
OVCAR-3
  GI50: 20.5 µM (inactive)
UO-31
  GI50: 23.3 µM (inactive)
ACHN
  GI50: 26.5 µM (inactive)
SNB-19
  GI50: 17 µM (inactive)
SNB-78
  GI50: 17.4 µM (inactive)
NCI-H460
  GI50: 33.8 µM (inactive)
HOP-92
  GI50: 16.5 µM (inactive)
OVCAR-4
  GI50: 25.5 µM (inactive)
KM-20L2
  GI50: > 100 µM (inactive)
HOP-18
  GI50: 20.1 µM (inactive)
OVCAR-5
  GI50: > 56.5 µM (inactive)
SF-539
  GI50: 16.3 µM (inactive)
SR
  GI50: 4.03 µM (inactive)
M19-MEL
  GI50: 31.3 µM (inactive)
A498
  GI50: 17.9 µM (inactive)
SF-295
  GI50: 23.9 µM (inactive)
NCI-H522
  GI50: 12.3 µM (inactive)
HT-29
  GI50: > 100 µM (inactive)
DMS-273
  GI50: 37.2 µM (inactive)
K562
  GI50: > 100 µM (inactive)
SK-MEL-2
  GI50: 19.5 µM (inactive)
LOX IMVI
  GI50: 13.6 µM (inactive)
OVCAR-8
  GI50: 20.7 µM (inactive)
Malme-3M
  GI50: 17.9 µM (inactive)
UACC-257
  GI50: 57.3 µM (inactive)
HL-60
  GI50: > 100 µM (inactive)
U-251
  GI50: 14.4 µM (inactive)
HCT-15
  GI50: 53.5 µM
NCI-H23
  GI50: 21.4 µM (inactive)
SN12C
  GI50: 24 µM (inactive)
HCC 2998
  GI50: 39.4 µM (inactive)
UACC-62
  GI50: 14.6 µM (inactive)
A549
  GI50: 46.9 µM (inactive)
RPMI-8226
  GI50: > 100 µM (inactive)
SW-620
  GI50: 52.7 µM (inactive)
SK-MEL-28
  GI50: 50.8 µM (inactive)
CAKI-1
  GI50: > 52.5 µM (inactive)
RXF 393
  GI50: 17.5 µM (inactive)
KM12
  GI50: 31.6 µM (inactive)
EKVX
  GI50: 38.2 µM (inactive)
DLD-1
  GI50: 45 µM (inactive)
HOP-62
  GI50: 18.5 µM (inactive)
TK-10
  GI50: 24.7 µM (inactive)
SF-268
  GI50: 15.9 µM (inactive)
IGROV-1
  GI50: 21.5 µM (inactive)
RXF 631
  GI50: 33.1 µM (inactive)
HCT-116
  GI50: 17.7 µM (inactive)
CCRF-CEM
  GI50: 38.5 µM (inactive)
SNB-75
  GI50: 14.4 µM (inactive)
786-0
  GI50: 19.2 µM (inactive)

## CC1=CCC2(C#N)CCC1C2=O (stereo not given)
DMS-114
  GI50: > 100 µM (inactive)
SK-MEL-5
  GI50: > 100 µM (inactive)
COLO 205
  GI50: > 100 µM (inactive)
MOLT-4
  GI50: > 100 µM (inactive)
NCI-H226
  GI50: > 100 µM (inactive)
M14
  GI50: > 100 µM (inactive)
SK-OV-3
  GI50: > 100 µM (inactive)
LXFL 529
  GI50: > 100 µM (inactive)
OVCAR-3
  GI50: > 100 µM (inactive)
UO-31
  GI50: > 100 µM (inactive)
ACHN
  GI50: > 100 µM (inactive)
SNB-19
  GI50: > 100 µM (inactive)
SNB-78
  GI50: > 100 µM (inactive)
NCI-H460
  GI50: > 100 µM (inactive)
OVCAR-4
  GI50: > 100 µM (inactive)
KM-20L2
  GI50: > 100 µM (inactive)
XF498
  GI50: > 100 µM (inactive)
OVCAR-5
  GI50: > 100 µM (inactive)
SF-539
  GI50: > 100 µM (inactive)
SR
  GI50: > 100 µM (inactive)
M19-MEL
  GI50: > 100 µM (inactive)
A498
  GI50: > 100 µM (inactive)
SF-295
  GI50: > 100 µM (inactive)
NCI-H522
  GI50: > 100 µM (inactive)
HT-29
  GI50: > 100 µM (inactive)
K562
  GI50: > 100 µM (inactive)
SK-MEL-2
  GI50: > 100 µM (inactive)
LOX IMVI
  GI50: > 100 µM (inactive)
OVCAR-8
  GI50: > 100 µM (inactive)
Malme-3M
  GI50: > 100 µM (inactive)
UACC-257
  GI50: > 100 µM (inactive)
HL-60
  GI50: > 100 µM (inactive)
U-251
  GI50: > 100 µM (inactive)
HCT-15
  GI50: > 100 µM
NCI-H23
  GI50: > 100 µM (inactive)
SN12C
  GI50: > 100 µM (inactive)
UACC-62
  GI50: > 100 µM (inactive)
A549
  GI50: > 100 µM (inactive)
RPMI-8226
  GI50: > 100 µM (inactive)
SW-620
  GI50: > 100 µM (inactive)
CAKI-1
  GI50: > 100 µM (inactive)
KM12
  GI50: > 100 µM (inactive)
EKVX
  GI50: > 100 µM (inactive)
DLD-1
  GI50: > 100 µM (inactive)
HOP-62
  GI50: > 100 µM (inactive)
TK-10
  GI50: > 100 µM (inactive)
SF-268
  GI50: > 100 µM (inactive)
IGROV-1
  GI50: > 100 µM (inactive)
RXF 631
  GI50: > 100 µM (inactive)
HCT-116
  GI50: > 100 µM (inactive)
CCRF-CEM
  GI50: > 100 µM (inactive)
786-0
  GI50: > 100 µM (inactive)
